Assays:
Experiment in all cases: B1 Post-emergence efficacy, glasshouse pot test
Format in all cases: in vivo
Conditions in all cases: post-emergence application, 1000 g/ha, evaluated after 13 days
[1] = tested on: Amaranthus retoflexus (AMARE)
Procedure: (§1) B1 Post-Emergence Efficacy Seeds of a variety of test species are sown in standard soil in pots:—Solanum nigrum (SOLNI), Amaranthus retoflexus (AMARE), Setaria faberi (SETFA), Alopecurus myosuroides (ALOMY), Echinochloa crus-galli (ECHCG), Ipomoea hederacea (IPOHE), Lolium perenne (LOLPE). After 8 days cultivation (post-emergence) under controlled conditions in a glasshouse (at 24/16° C., day/night; 14 hours light; 65% humidity), the plants are sprayed with an aqueous spray solution derived from the formulation of the technical active ingredient in acetone/water (50:50) solution containing 0.5% Tween 20 (polyoxyethelyene sorbitan monolaurate, CAS RN 9005-64-5). Compounds are applied at 1000 g/ha. The test plants are then grown in a glasshouse under controlled conditions in a glasshouse (at 24/16° C., day/night; 14 hours light; 65% humidity) and watered twice daily. After 13 days, the test is evaluated for the percentage damage caused to the plant. The biological activities are assessed on a five point scale (5=80-100%; 4=60-79%; 3=40-59%; 2=20-39%; 1=0-19%). A blank value in the table is indicative that the compound was not tested on that species.

[2] = tested on: Alopecurus myosuroides (ALOMY)
Procedure: as §1

Setaria faberi (SETFA) = tested on: Setaria faberi (SETFA)
Procedure: as §1

Solanum nigrum (SOLNI) = tested on: Solanum nigrum (SOLNI)
Procedure: as §1

[3] = tested on: Echinochloa crus-galli (ECHCG)
Procedure: as §1

[4] = tested on: Ipomoea hederacea (IPOHE)
Procedure: as §1

Lolium perenne (LOLPE) = tested on: Lolium perenne (LOLPE)
Procedure: as §1

Row | Structure (SMILES) | AMARE: percentage damage caused to the plant (five point scale) [1] | ALOMY: percentage damage caused to the plant (five point scale) [2] | SETFA: percentage damage caused to the plant (five point scale) (Setaria faberi (SETFA)) | SOLNI: percentage damage caused to the plant (five point scale) (Solanum nigrum (SOLNI)) | ECHCG: percentage damage caused to the plant (five point scale) [3] | IPOHE: percentage damage caused to the plant (five point scale) [4] | LOLPE: percentage damage caused to the plant (five point scale) (Lolium perenne (LOLPE))
1 | CC1=NN(C)C(=O)C(c2c(Cl)ccc(Cl)c2OCc2ccccc2)C1=O (stereo not drawn) [Compound 1.001, 4-(2-benzyloxy-3,6-dichloro-phenyl)-2,6-dimethyl-pyridazine-3,5-dione] | 5 (5=80-100%) | 4 (4=60-79%) | 5 (5=80-100%) | 5 (5=80-100%) | 5 (5=80-100%) | 5 (5=80-100%) | 
2 | COc1ccc(COc2c(Cl)ccc(Cl)c2-c2c(O)c(C)nn(C)c2=O)cc1 [Compound 1.067] | 2 (2=20-39%) |  | 5 (5=80-100%) | 5 (5=80-100%) | 5 (5=80-100%) | 5 (5=80-100%) | 5 (5=80-100%)
3 | CN(C)c1nn(C)c(=O)c(-c2c(F)ccc(Cl)c2OCc2ccccc2)c1O [Compound 1.085] | 5 (5=80-100%) |  | 3 (3=40-59%) | 5 (5=80-100%) | 4 (4=60-79%) | 5 (5=80-100%) | 5 (5=80-100%)
4 | Cc1ccc(Cl)c(OCc2ccccc2)c1-c1c(O)c(C)nn(C)c1=O [Compound 1.076] | 2 (2=20-39%) |  | 5 (5=80-100%) | 5 (5=80-100%) | 5 (5=80-100%) | 5 (5=80-100%) | 4 (4=60-79%)
5 | CCc1nn(C)c(=O)c(-c2c(Cl)ccc(Cl)c2OCc2ccccc2)c1O [Compound 1.007] | 5 (5=80-100%) |  | 5 (5=80-100%) | 5 (5=80-100%) | 5 (5=80-100%) | 5 (5=80-100%) | 4 (4=60-79%)
6 | Cn1nc(N)c(O)c(-c2c(F)ccc(Cl)c2OCc2ccccc2)c1=O [Compound 1.078] | 3 (3=40-59%) |  | 3 (3=40-59%) | 5 (5=80-100%) | 2 (2=20-39%) | 4 (4=60-79%) | 1 (1=0-19%)
7 | Cc1nn(C2CC2)c(=O)c(-c2c(F)ccc(Cl)c2OCc2ccccc2)c1O [Compound 1.044] | 5 (5=80-100%) |  | 5 (5=80-100%) | 5 (5=80-100%) | 5 (5=80-100%) | 5 (5=80-100%) | 5 (5=80-100%)
8 | CCn1nc(C)c(O)c(-c2c(F)ccc(Cl)c2OCc2ccccc2)c1=O [Compound 1.037] | 5 (5=80-100%) |  | 4 (4=60-79%) | 5 (5=80-100%) | 5 (5=80-100%) | 5 (5=80-100%) | 5 (5=80-100%)
9 | C#CCn1nc(C)c(O)c(-c2c(F)ccc(Cl)c2OCc2ccccc2)c1=O [Compound 1.077] | 5 (5=80-100%) |  | 5 (5=80-100%) | 5 (5=80-100%) | 5 (5=80-100%) | 5 (5=80-100%) | 5 (5=80-100%)
10 | Cc1nn(C)c(=O)c(-c2c(Cl)ccc(Cl)c2OCc2ccc(Cl)c(Cl)c2)c1O [Compound 1.005] | 5 (5=80-100%) |  | 5 (5=80-100%) | 5 (5=80-100%) | 5 (5=80-100%) | 5 (5=80-100%) | 5 (5=80-100%)
11 | Cn1nc(C2CC2)c(O)c(-c2c(Cl)ccc(Cl)c2OCc2ccccc2)c1=O [Compound 1.009] | 5 (5=80-100%) |  | 5 (5=80-100%) | 5 (5=80-100%) | 5 (5=80-100%) | 5 (5=80-100%) | 5 (5=80-100%)

— patent US9944608B2, “Herbicidal pyridazinone derivatives” (Syngenta Participations AG, priority 2014, dated 2018)
